Reference: patent US20260262643A1, “HERBICIDAL BENZOXAZINES” (FMC CORPORATION, priority 2022, published 2026)

Columns and labels:
ducksalad = experiment: Test D flooded paddy test; type: in vivo, Heteranthera limosa; settings: 250 g ai/ha, applied to paddy water, visual rating after 13 to 14 days, scale 0 to 100 (0 no effect, 100 complete control)
Procedure, shortened: (§1)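 Plants at the 2-leaf stage were grown in pots flooded to 3 cm, and compound was applied directly into the paddy water, with depth kept throughout. After 13–14 days in a greenhouse, injury was rated visually against untreated controls on a 0–100 scale (100 = complete control); a dash means not tested.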

rice = experiment: Test D flooded paddy test; type: in vivo, Oryza sativa; settings: 250 g ai/ha, applied to paddy water, visual rating after 13 to 14 days, scale 0 to 100 (0 no effect, 100 complete control)
Procedure, shortened: as §1

horseweed = experiment: Test C postemergence; type: in vivo, Erigeron canadensis; settings: 10 days
Procedure, shortened: (§2)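 Test material, in non-phytotoxic solvent with surfactant, was sprayed on the soil directly after seeding (preemergence) or on young plants of 2–10 cm with one to two leaves (postemergence). Greenhouse, 10 days; 0–100 visual control scale.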

blackgrass [1] = experiment: Test C postemergence; type: in vivo, Alopecurus myosuroides; settings: 10 days
Procedure, shortened: as §2

ryegrass, Italian [2] = experiment: Test C preemergence; type: in vivo, Lolium multiflorum; settings: for Plant response rating, Ryegrass, Italian: Preemergence
Procedure, shortened: as §2

sedge, umbrella = experiment: Test D flooded paddy test; type: in vivo, Cyperus difformis; settings: 250 g ai/ha, applied to paddy water, visual rating after 13 to 14 days, scale 0 to 100 (0 no effect, 100 complete control)
Procedure, shortened: as §1

corn [3] = experiment: Test C postemergence; type: in vivo, Zea mays; settings: 500 g ai/ha, 10 days
Procedure, shortened: as §2

oat, wild [4] = experiment: Test C preemergence; type: in vivo, Avena fatua
Procedure, shortened: as §2

pigweed, palmer [5] = experiment: Test C preemergence; type: in vivo, Amaranthus palmeri; settings: for Plant response rating, Pigweed, Palmer: Preemergence
Procedure, shortened: as §2

kochia [6] = experiment: Test C preemergence; type: in vivo, Bassia scoparia; settings: for Plant response rating, Kochia: Preemergence
Procedure, shortened: as §2

ragweed [7] = experiment: Test C preemergence; type: in vivo, Ambrosia artemisiifolia; settings: for Plant response rating, Ragweed: Preemergence
Procedure, shortened: as §2

barnyardgrass [8] = experiment: Test C postemergence; type: in vivo, Echinochloa crusgalli
Procedure, shortened: as §2

green foxtail [9] = experiment: Test C preemergence; type: in vivo, Setaria viridis; settings: for Plant response rating, Foxtail, Green: Preemergence
Procedure, shortened: as §2

corn [10] = experiment: Test C preemergence; type: in vivo, Zea mays
Procedure, shortened: as §2

green foxtail [11] = experiment: Test C postemergence; type: in vivo, Setaria viridis; settings: 10 days
Procedure, shortened: as §2

soybean = experiment: Test C preemergence; type: in vivo, Glycine max
Procedure, shortened: as §2

galium = experiment: Test C postemergence; type: in vivo, Galium aparine; settings: Postemergence, 10 days, visual 0 to 100 scale (0 no effect, 100 complete control)
Procedure, shortened: as §2

barnyardgrass [12] = experiment: Test C preemergence; type: in vivo, Echinochloa crusgalli; settings: Preemergence
Procedure, shortened: as §2

wheat = experiment: Test C preemergence; type: in vivo, Triticum aestivum
Procedure, shortened: as §2

blackgrass [13] = experiment: Test C preemergence; type: in vivo, Alopecurus myosuroides; settings: Preemergence
Procedure, shortened: as §2

barnyardgrass [14] = experiment: Test D flooded paddy test; type: in vivo, Echinochloa crus-galli; settings: 250 g ai/ha, applied to paddy water, visual rating after 13 to 14 days, scale 0 to 100 (0 no effect, 100 complete control)
Procedure, shortened: as §1

pigweed, palmer [15] = experiment: Test C postemergence; type: in vivo, Amaranthus palmeri; settings: 10 days
Procedure, shortened: as §2

kochia [16] = experiment: Test C postemergence; type: in vivo, Bassia scoparia; settings: 10 days
Procedure, shortened: as §2

ryegrass, Italian [17] = experiment: Test C postemergence; type: in vivo, Lolium multiflorum; settings: Postemergence, 1000 g ai/ha, 10 days, visual 0 to 100 scale (0 no effect, 100 complete control)
Procedure, shortened: as §2

ragweed [18] = experiment: Test C postemergence; type: in vivo, Ambrosia artemisiifolia; settings: Postemergence, 1000 g ai/ha, 10 days, visual 0 to 100 scale (0 no effect, 100 complete control)
Procedure, shortened: as §2

oat, wild [19] = experiment: Test C postemergence; type: in vivo, Avena fatua; settings: 500 g ai/ha, postemergence, 10 days, 0 to 100 scale (0 no effect, 100 complete control)
Procedure, shortened: as §2

[20] = Postemergence, 500 g ai/ha, visual 0 to 100 scale (0 no effect, 100 complete control)
[21] = 500 g ai/ha, preemergence, 0 to 100 scale (0 no effect, 100 complete control)
[22] = 500 g ai/ha, visual rating after 10 days, 0 to 100 scale (0 no effect, 100 complete control)
[23] = Postemergence, 1000 g ai/ha, visual 0 to 100 scale (0 no effect, 100 complete control)
[24] = 1000 g ai/ha, visual rating after 10 days, 0 to 100 scale (0 no effect, 100 complete control)
[25] = Postemergence, 1000 g ai/ha, 0 to 100 scale, 0 no effect, 100 complete control
[26] = 500 g ai/ha, postemergence, 0 to 100 scale (0 no effect, 100 complete control)
[27] = 125 g ai/ha, 0 to 100 scale, 0 no effect, 100 complete control
[28] = Preemergence, 125 g ai/ha, 0 to 100 scale, 0 no effect, 100 complete control

Structure (SMILES) | Plant response rating, Ducksalad (Flood) (ducksalad) | Plant response rating, Rice (Flood) (rice) | Plant response rating, Sedge, Umbrella (Flood) (sedge, umbrella) | Plant response rating, Barnyardgrass (Flood) (barnyardgrass [14]) | Plant response rating, Pigweed, Palmer (pigweed, palmer [15]; [23]) | Plant response rating, Horseweed (horseweed; [23]) | Plant response rating, Blackgrass (blackgrass [1]; [23]) | Plant response rating, Kochia (kochia [16]; [23]) | Plant response rating, Ryegrass, Italian (ryegrass, Italian [2]; [24]) | Plant response rating, Pigweed, Palmer (pigweed, palmer [5]; [24]) | Plant response rating, Kochia (kochia [6]; [24]) | Plant response rating, Ragweed (ragweed [7]; [24]) | Plant response rating, Barnyardgrass (barnyardgrass [8]; [25]) | Plant response rating, Ryegrass, Italian (ryegrass, Italian [17]) | Plant response rating, Foxtail, Green (green foxtail [9]; [24]) | Plant response rating, Foxtail, Green (green foxtail [11]; [23]) | Plant response rating, Galium (galium; 1000 g ai/ha) | Plant response rating, Barnyardgrass (barnyardgrass [12]; [24]) | Plant response rating, Ragweed (ragweed [18]) | Plant response rating, Blackgrass (blackgrass [13]; [24]) | other results
CC(C)c1ncn(-c2cc(O)c(O)c(C(=O)N3C[C@H](C)Oc4c(Cl)cccc43)c2)n1 [Compound 272, [(2S)-8-chloro-2-methyl-2,3-dihydro-1,4-benzoxazin-4-yl]-[2,3-dihydroxy-5-(3-isopropyl-1,2,4-triazol-1-yl)phenyl]methanone] | 0 | 0 | 0 | 0 | – | – | – | – | – | – | – | – | – | – | – | – | – | – | – | – | Plant response rating, Horseweed (horseweed; [20]): 10; pest or weed control at 500 g/ha (blackgrass [1]; Alopecurus myosuroides, post-emergence, 240 h, Postemergence, 500 g ai/ha, visual 0 to 100 scale (0 no effect, 100 complete control), read-out: Plant response rating, Blackgrass): 0%; Ryegrass, Italian plant response rating (ryegrass, Italian [2]; [21]): 0; Corn plant response rating (crop injury, 0 = no effect, 100 = complete kill) at 500 g/ha (corn [3]; Zea mays, post-emergence, 240 h, Postemergence, visual 0 to 100 scale (0 no effect, 100 complete control)): 0%; Oat, Wild plant response rating (oat, wild [4]; [21]): 0; Pigweed, Palmer plant response rating (pigweed, palmer [5]; [21]): 90; Kochia plant response rating (kochia [6]; [21]): 0; Ragweed plant response rating (ragweed [7]; [21]): 30; Plant response rating, Barnyardgrass (barnyardgrass [8]; Postemergence, 500 g ai/ha, 10 days, visual 0 to 100 scale (0 no effect, 100 complete control)): 0; Foxtail, Green plant response rating (green foxtail [9]; [21]): 0; Corn plant response rating (corn [10]; [21]): 0; Plant response rating, Foxtail, Green (green foxtail [11]; [20]): 0; Soybean plant response rating (soybean; [21]): 0; Plant response rating, Galium (galium; 500 g ai/ha): 0; Plant response rating, Barnyardgrass (barnyardgrass [12]; [22]): 0; Wheat plant response rating (wheat; [21]): 0; Plant response rating, Blackgrass (blackgrass [13]; [22]): 0
Cc1cnn(-c2cccc(C(=O)N3C[C@H](C)Oc4c(Cl)cccc43)c2)c1 [Compound 207] | 0 | 0 | 0 | 0 | 90 | 10 | 10 | 20 | 90 | 90 | 30 | 0 | 30 | 70 | 90 | 10 | 10 | 90 | 10 | 20 | –
Cc1nccc(-c2cccc(C(=O)N3C[C@H](C)Oc4c(C)cccc43)c2)n1 [Compound 250] | 0 | 0 | 0 | 0 | 50 | 0 | 20 | 70 | 90 | 80 | 80 | 0 | 50 | 40 | 100 | 80 | 50 | 90 | 50 | 30 | –
CCOC[C@H]1CN(C(=O)c2cc(-n3cnc(C(C)C)n3)cc3c2OCO3)c2cccc(Cl)c2O1 [Compound 400] | 45 | 0 | 40 | 15 | – | – | – | – | – | – | – | – | – | – | – | – | – | – | – | – | Plant response rating, Pigweed, Palmer (pigweed, palmer [15]; [26]): 100; Plant response rating, Horseweed (horseweed; [26]): 20; Plant response rating, Blackgrass (blackgrass [1]; [26]): 70; Plant response rating, Kochia (kochia [16]; [26]): 90; Plant response rating, Ryegrass, Italian (ryegrass, Italian [2]; [27]): 60; Plant response rating, Corn (corn [3]; postemergence, 0 to 100 scale (0 no effect, 100 complete control)): 50; Plant response rating, Oat, Wild (oat, wild [4]; [28]): 0; Plant response rating, Pigweed, Palmer (pigweed, palmer [5]; [27]): 100; Plant response rating, Kochia (kochia [6]; [27]): 50; Plant response rating, Ragweed (ragweed [7]; [27]): 30; Plant response rating, Barnyardgrass (barnyardgrass [8]; 500 g ai/ha, postemergence, 10 days, 0 to 100 scale (0 no effect, 100 complete control)): 50; Plant response rating, Foxtail, Green (green foxtail [9]; [27]): 70; Plant response rating, Corn (corn [10]; [28]): 0; Plant response rating, Oat, Wild (oat, wild [19]): 20; Plant response rating, Foxtail, Green (green foxtail [11]; [26]): 40; Plant response rating, Soybean (soybean; [28]): 20; Plant response rating, Barnyardgrass (barnyardgrass [12]; [27]): 50; Plant response rating, Wheat (wheat; [28]): 0; Plant response rating, Blackgrass (blackgrass [13]; [27]): 0
